Results from US20130129675A1, “INTERFERON THERAPIES IN COMBINATION WITH BLOCKADE OF STAT3 ACTIVATION” (BOARD OF REGENTS, THE UNIVERSITY OF TEXAS SYSTEM, priority 2009, published 2013).

Columns and labels:
B16 cells = experiment: MHC I, MHC II and NK cell ligands on B16 melanoma cells (flow cytometry); format: cell-based, murine; conditions: WP1193 2 μM, IFN-α 20 ng/ml; for MHC I expression on B16: 24 hours (FIG. 6A); for surface H60, Rae-1 and CD155 (NK ligands) on B16: 24 hours (FIG. 6B)
Experimental: To ascertain the MHC I, MHC II, and NK ligands expressed on melanoma cells, B16 cells were seeded at a density of 2×10^6 cells/well in 24-well culture plates and cultured with the RPMI 1640 medium in the absence or presence of WP1193 (2 μM) and/or INF-α (20 ng/ml) for 24 hours. Afterwards, the cells were harvested and washed twice, and 10^6 cells in duplicate were Fc blocked with purified rat anti-mouse CD16/CD32 (BD Biosciences) for 15 minutes at room temperature. The B16 cells were washed and then stained for approximately 30 minutes at 4° C. with FITC-conjugated rat anti-mouse MHC I mAb (Abeam, Cambridge, Mass.), PE-conjugated rat anti-mouse MHC Class II mAb (Abeam), FITC-conjugated rat anti-mouse Rae-1 mAb (R&D Systems), APC-conjugated rat anti-mouse H60 mAb (R&D Systems) or PE-conjugated rat anti-mouse CD155 mAb (Biolegend). Negative control cells were stained with the corresponding isotypes. Following incubation, the cells were washed twice with FACS buffer and then analyzed with a BD FACSCalibur with gates set for viable cells.
Because we observed NK and CD8+ T cell-mediated anti-tumor cytotoxicity were enhanced with combinational therapy, to ascertain if either IFN-α, WP1193 or both were augmenting the expression of MHC or NK activating receptors or their ligands, splenocytes and B16 cells were treated with RPMI 1640 medium (control), WP1193 (2 μM), IFN-α (20 ng/ml), or IFN-α (20 ng/ml)+WP1193 (2 μM) for 24 hours. The NK-activating ligands (Rae-1, H60 and CD155) and MHC (I and II) on B16 cells and the NK-activating receptors (NKG2D, KLRD1, NKp46 and DNAM-1) on NK1.1+ NK cells were analyzed by flow cytometric analysis.

Tregs (CD4+Foxp3+) = experiment: Inhibition of Tregs in vivo; parameters: species or system mice; conditions: for number of Foxp3+ Tregs in the thymus, lymph nodes, or spleen: alone or in combination; for % of CD4+ Foxp3+ Cells: bone marrow, control 24.5; for % of CD4+ Foxp3+ Cells / inhibition of the number of Tregs (CD4+Foxp3+) in the bone marrow: non-tumor bearing mice treated for 16 days; for inhibition of the number of Tregs (CD4+Foxp3+) in the peripheral blood / inhibition of the number of Tregs (CD4+Foxp3+) in the bone marrow: compared with control
Experimental: Determination of inhibition of Tregs in vivo. […] Single-cell suspensions were prepared from bone marrows, lymph nodes, spleens, thymuses and peripheral blood of mice. Single cells were surface-stained by FITC-conjugated anti-CD4 (L3T4), PerCP-conjugated anti-CD8 (53-6.7) and APC-conjugated anti-CD25 (PC61), and the cells were further subjected to intracellular staining with PE-conjugated mAbs to mouse FoxP3 (clone FJK-16s; eBioscience, San Diego, Calif.) using staining buffers and conditions specified by the manufacturer.
In vivo treatment of mice with IFN-α and WP1193 inhibits bone marrow-derived Tregs but combinational therapy is not synergistic. To ascertain the in vivo effects of IFN-α and WP1193, and in combination on Tregs, non-tumor bearing mice were treated for 16 days.

[1] = tested on: B16 target cells (CD3+CD8+ T effector cells); experiment: CD8+ T cell cytotoxicity assay against melanoma cells; format: cell-based, mice; conditions: WP1193 2 μM, IFN-α 20 ng/ml, 48 h, control 10.8
Experimental: Splenocytes were prepared as described above. NK1.1+CD3− NK effector cells or CD3+CD8+ T effector cells were sorted from splenocytes on a FACSAria Cell Sorter (BD Biosciences) with FITC-conjugated anti-mouse NK1.1 (eBioscience), PE-conjugated anti-CD3, and allophycocyanin (APC)-conjugated anti-CD8 antibodies (Miltenyi Biotec, Auburn, Calif.). B16 target cells were prepared as described above. The ratio of NK1.1+CD3− NK effector cells or CD8+ T effector cells to B16 target cells was 10:1 and 5:1, respectively. In the presence of NK1.1+CD3− NK cells or CD8+ T cells, treatment groups consisted of B16 target cells alone; B16 cells with 2 μM of WP1193; B16 cells with 20 ng/ml of IFN-α; B16 cells with 2 µM of WP1193 and 20 ng/ml of IFN-α. After 48 hours of incubation, the CFSE-labeled B16 melanoma cells were removed from the plates with trypsin and analyzed by FACS. Then, B16 cells were stained with PI (BD Biosciences) to distinguish viable cells from nonviable cells. B16 cells that were stained with CFSE and PI were considered nonviable. Flow cytometric acquisition of the B16 target cells was performed with a FACSCalibur flow cytometer (BD Biosciences), and data analysis was performed using FlowJo software (TreeStar). […]

| Compound | MHC I expression on B16 (B16 cells) | surface H60, Rae-1 and CD155 (NK ligands) on B16 (B16 cells) | number of Foxp3+ Tregs in the thymus, lymph nodes, or spleen (Tregs (CD4+Foxp3+)) | % of CD4+ Foxp3+ Cells (Tregs (CD4+Foxp3+)) [%] | inhibition of the number of Tregs (CD4+Foxp3+) in the peripheral blood (Tregs (CD4+Foxp3+)) [%] | inhibition of the number of Tregs (CD4+Foxp3+) in the bone marrow (Tregs (CD4+Foxp3+)) [%] | % of B16 Killimg [1] [%] | suppressive activity of sorted Tregs (Tregs (CD4+Foxp3+); FoxP3-GFP reporter mouse, IFN-α-treated or control) |
| --- | --- | --- | --- | --- | --- | --- | --- | --- |
| N#C/C(=C\c1cccc(Br)n1)C(=O)N[C@H](c1ccccc1)C1CC1 [WP1193, (S,E)-3-(6-bromopyridin-2-yl)-2-cyano-N-(cyclopropyl(phenyl)methyl)acrylamide] | not further enhanced | do not alter the receptor density of the NK ligands | did not inhibit | 16.8 | 20 | 31 | 11.2 |  |
| IFN-α | enhanced | do not alter the receptor density of the NK ligands | did not inhibit | 5.2 | 46 | 78 | 14.3 | did not see a decrease in the suppressive activity |
